Assay results: the supplement of paper PMC11061612

What was measured:
[1] = system: TE-10 (Esophageal Squamous Cell Carcinoma); experiment: Bliss excess, mean over the matrix (fraction); higher = more synergy
Summary of the method: (§1)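 Cell lines grown in DMEM/F12 or RPMI with 10% FBS were plated in 1536-well plates and held 24 hours at 37°C, 5% CO2 before 72 hours of exposure to two-drug dose matrices, with DMSO typically at 0.2%. CellTiter-Glo 2.0 luminescence gave viability, which was converted to inhibition. Vehicle wells were set to 0 and blank wells to 1. Combination Emax is the second-highest inhibition in the matrix, and Bliss excess is the observed combination effect minus the expected EA + EB − EA·EB, where EA and EB are the single-agent effects.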

[2] = system: 22RV1 (Prostate Carcinoma); experiment: combination Emax (second highest fraction inhibited in the dose matrix, 72 h); higher = more inhibition; extreme values may be limits of the assay
Summary of the method: as §1

769-P (Kidney Carcinoma) = experiment: as above
Summary of the method: as §1

COLO-792 (Melanoma) = experiment: as above
Summary of the method: as §1

EW-16 (Ewing's Sarcoma) = experiment: as above
Summary of the method: as §1

IM-9 (Non-Cancerous) = experiment: as above
Summary of the method: as §1

[3] = system: JIMT-1 (Breast Carcinoma); experiment: as above
Summary of the method: as §1

[4] = system: Jurkat (T-Lymphoblastic Leukemia); experiment: as above
Summary of the method: as §1

KP-N-YN (Neuroblastoma) = experiment: as above
Summary of the method: as §1

[5] = system: NCI-H1651 (Lung Adenocarcinoma); experiment: as above
Summary of the method: as §1

[6] = system: TE-10 (Esophageal Squamous Cell Carcinoma); experiment: as above
Summary of the method: as §1

WM1552C (Melanoma) = experiment: as above
Summary of the method: as §1
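For Bliss excess, mean over the matrix in this document: after 72 h of two-drug dosing.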

SMILES | Bliss excess [1] | combination Emax [2] | combination Emax (769-P (Kidney Carcinoma)) | combination Emax (COLO-792 (Melanoma)) | combination Emax (EW-16 (Ewing's Sarcoma)) | combination Emax (IM-9 (Non-Cancerous)) | combination Emax [3] | combination Emax [4] | combination Emax (KP-N-YN (Neuroblastoma)) | combination Emax [5] | combination Emax [6] | combination Emax (WM1552C (Melanoma))
CN(C)CCCOc1ccc(-c2ccc3ncc4c(c3c2)n(C2CCOCC2)c(=O)n4C)cn1 [AZD0156] + C=CCn1c(=O)c2cnc(Nc3ccc(N4CCN(C)CC4)cc3)nc2n1-c1cccc(C(C)(C)O)n1 [AZD1775] (first compound max 1 µM, partner max 1 µM) | -0.033 | 0.346 | 0.766 | 0.538 | 0.307 | 0.986 | 0.488 | 0.879 | 0.95 | 0.62 | 0.808 | 0.476
CN(C)CCCOc1ccc(-c2ccc3ncc4c(c3c2)n(C2CCOCC2)c(=O)n4C)cn1 [AZD0156] + CCN(CCO)CCCOc1ccc2c(Nc3cc(CC(=O)Nc4cccc(F)c4)[nH]n3)ncnc2c1 [AZD2811] (first compound max 1 µM, 7x7, partner max 1 µM) | 0.0126 | 0.267 | 0.0806 | 0.358 | 0.423 | 0.944 | 0.0631 | 0.309 | 0.486 | 0.107 | 0.332 | 0.242
CN(C)CCCOc1ccc(-c2ccc3ncc4c(c3c2)n(C2CCOCC2)c(=O)n4C)cn1 [AZD0156] + C[C@@H]1COCCN1C2=NC(=NC(=C2)C3(CC3)[S@](=N)(=O)C)C4=C5C=CNC5=NC=C4 [AZD6738] (first compound max 1 µM, 7x7, partner max 10 µM) | -0.0075 | 0.524 | 0.84 | 0.273 | 0.695 | 0.976 | 0.799 | 0.898 | 0.973 | 0.649 | 0.814 | 0.783
C=CCn1c(=O)c2cnc(Nc3ccc(N4CCN(C)CC4)cc3)nc2n1-c1cccc(C(C)(C)O)n1 [AZD1775] + C[C@@H]1COCCN1C2=NC(=NC(=C2)C3(CC3)[S@](=N)(=O)C)C4=C5C=CNC5=NC=C4 [AZD6738] (first compound max 1 µM, partner max 10 µM) | -0.0029 | 0.636 | 0.847 | 0.474 | 0.771 | 0.999 | 0.76 | 0.991 |  | 0.823 | 0.901 | 0.805
C=CCn1c(=O)c2cnc(Nc3ccc(N4CCN(C)CC4)cc3)nc2n1-c1cccc(C(C)(C)O)n1 [AZD1775] + O=C(c1cc(Cc2n[nH]c(=O)c3ccccc23)ccc1F)N1CCN(C(=O)C2CC2)CC1 [Olaparib] (first compound max 1 µM, partner max 10 µM) | -0.0196 | 0.323 | 0.716 | 0.284 | 0.529 | 0.986 | 0.558 | 0.842 | 0.723 | 0.736 | 0.858 | 0.486
CCN(CCO)CCCOc1ccc2c(Nc3cc(CC(=O)Nc4cccc(F)c4)[nH]n3)ncnc2c1 [AZD2811] + C=CCn1c(=O)c2cnc(Nc3ccc(N4CCN(C)CC4)cc3)nc2n1-c1cccc(C(C)(C)O)n1 [AZD1775] (first compound max 1 µM, partner max 1 µM) | 0.0176 | 0.234 | 0.632 | 0.396 | 0.41 | 0.999 | 0.488 | 0.798 | 0.913 | 0.634 | 0.737 | 0.424
CCN(CCO)CCCOc1ccc2c(Nc3cc(CC(=O)Nc4cccc(F)c4)[nH]n3)ncnc2c1 [AZD2811] + C[C@@H]1COCCN1C2=NC(=NC(=C2)C3(CC3)[S@](=N)(=O)C)C4=C5C=CNC5=NC=C4 [AZD6738] (first compound max 1 µM, 7x7, partner max 10 µM) | -0.0869 | 0.566 | 0.85 | 0.418 | 0.758 | 0.981 | 0.677 | 0.865 | 0.957 | 0.56 | 0.794 | 0.642
CCN(CCO)CCCOc1ccc2c(Nc3cc(CC(=O)Nc4cccc(F)c4)[nH]n3)ncnc2c1 [AZD2811] + O=C(c1cc(Cc2n[nH]c(=O)c3ccccc23)ccc1F)N1CCN(C(=O)C2CC2)CC1 [Olaparib] (first compound max 1 µM, 7x7, partner max 10 µM) | 0.0515 | 0.337 | 0.144 | 0.374 | 0.626 | 0.981 | 0.0806 | 0.384 | 0.541 | 0.248 | 0.4 | 0.377
CN(CCO)CC[C@H](CSc1ccccc1)Nc1ccc(S(=O)(=O)NC(=O)c2ccc(N3CCC([C@@H](O)c4ccccc4-c4ccc(Cl)cc4)CC3)cc2)cc1S(=O)(=O)C(F)(F)F [AZD4320] + CN(C)CCCOc1ccc(-c2ccc3ncc4c(c3c2)n(C2CCOCC2)c(=O)n4C)cn1 [AZD0156] (first compound max 1 µM, 7x7, partner max 1 µM) | -0.0208 | 0.385 | 0.719 | 0.856 | 0.406 | 0.459 | 0.171 | 0.478 |  | 0.0674 | 0.281 | 0.163
Cc1c2c(nn1C)CSCc1cc(n(C)n1)CSc1cc(c3ccccc3c1)OCCCc1c(C(=O)O)n(C)c3c-2c(Cl)ccc13 [AZD5991] + C1CN(CCC1(C(=O)N[C@@H](CCO)C2=CC=C(C=C2)Cl)N)C3=NC=NC4=C3C=CN4 [Capivasertib] (first compound max 1 µM, 7x7, partner max 3 µM) | 0.0484 | 0.706 | 0.146 | 0.988 | 0.195 | 0.756 | 0.21 | 1 | 0.256 | 0.254 | 0.901 | 0.929
Cc1c2c(nn1C)CSCc1cc(n(C)n1)CSc1cc(c3ccccc3c1)OCCCc1c(C(=O)O)n(C)c3c-2c(Cl)ccc13 [AZD5991] + C=CCn1c(=O)c2cnc(Nc3ccc(N4CCN(C)CC4)cc3)nc2n1-c1cccc(C(C)(C)O)n1 [AZD1775] (first compound max 1 µM, partner max 1 µM) | -0.0235 | 0.453 | 0.858 | 0.988 | 0.507 | 0.986 | 0.763 | 0.972 | 0.912 | 0.813 | 0.942 | 0.779
Cc1c2c(nn1C)CSCc1cc(n(C)n1)CSc1cc(c3ccccc3c1)OCCCc1c(C(=O)O)n(C)c3c-2c(Cl)ccc13 [AZD5991] + CC1(C)CCC(CN2CCN(c3ccc(C(=O)NS(=O)(=O)c4ccc(NCC5CCOCC5)c([N+](=O)[O-])c4)c(Oc4cnc5[nH]ccc5c4)c3)CC2)=C(c2ccc(Cl)cc2)C1 [Venetoclax] (first compound max 1 µM, 7x7, partner max 1 µM) | 0.0262 | 0.462 | 0.122 | 0.997 | 0.273 | 1 | 0.215 | 0.888 | 0.817 | 0.213 | 0.886 | 0.735
Cc1c2c(nn1C)CSCc1cc(n(C)n1)CSc1cc(c3ccccc3c1)OCCCc1c(C(=O)O)n(C)c3c-2c(Cl)ccc13 [AZD5991] + CN(C)CCCOc1ccc(-c2ccc3ncc4c(c3c2)n(C2CCOCC2)c(=O)n4C)cn1 [AZD0156] (first compound max 1 µM, 7x7, partner max 1 µM) | -0.055 | 0.476 | 0.243 | 1 | 0.29 | 0.608 | 0.225 | 0.928 | 0.252 | 0.212 | 0.84 | 0.76
Cc1c2c(nn1C)CSCc1cc(n(C)n1)CSc1cc(c3ccccc3c1)OCCCc1c(C(=O)O)n(C)c3c-2c(Cl)ccc13 [AZD5991] + C[C@@H]1COCCN1C2=NC(=NC(=C2)C3(CC3)[S@](=N)(=O)C)C4=C5C=CNC5=NC=C4 [AZD6738] (first compound max 1 µM, 7x7, partner max 10 µM) | -0.0332 | 0.71 | 0.797 | 1 | 0.756 | 1 | 0.723 | 0.974 | 0.968 | 0.714 | 0.901 | 0.836
Cc1c2c(nn1C)CSCc1cc(n(C)n1)CSc1cc(c3ccccc3c1)OCCCc1c(C(=O)O)n(C)c3c-2c(Cl)ccc13 [AZD5991] + C[C@@H](Nc1cc(F)cc(F)c1)c1cc(C(=O)N(C)C)cc2c(=O)cc(N3CCOCC3)oc12 [AZD8186] (first compound max 1 µM, 7x7, partner max 3 µM) | 0.0078 | 0.48 | 0.223 | 0.999 | 0.281 | 0.671 | 0.304 | 0.913 | 0.171 | 0.155 | 0.891 | 0.77
